Read-outs that look alike come from different tables or passages of the source.
Assays:
[1] = Pharmacokinetic study, single iv or oral administration in SD rats; assay type: in vivo; conditions: for concentration at 0.25 h / concentration at 0.5 h / concentration at 1 h / concentration at 2 h / concentration at 3 h / concentration at 4 h / concentration at 6 h / concentration at 8 h / concentration at 12 h / concentration at 24 h: n = 4; for MRT last: read-out: MRT0–t
Experimental: A total of 16 male SD rats, according to weight, were randomly divided into four groups (n = 4), a~d, as described in pharmacodynamics study: • (A) DST-3 intravenous injection of 6 mg/kg; • (B) DST-3 oral gavage of 60 mg/kg; • (C) CTS intravenous injection of 6 mg/kg; • (D) CTS oral gavage of 60 mg/kg.
Blood collection was performed in all rats at 0.25 h, 0.5 h, 1 h, 2 h, 3 h, 4 h, 6 h, 8 h, 12 h, and 24 h after administration.
The blank plasma for method validation was rapidly extracted from the main abdominal vein of SD rats. The sample for the pharmacokinetic study was obtained by taking 250 μL of blood from the orbit of SD rats. The blood was placed in a heparinized collection vessel, centrifuged at 3000 rpm for 10 min, and the upper plasma layer was taken.
A 100 μL sample was precisely measured, and 10 μL of loratadine working solution and 500 μL of ethyl acetate were added for liquid–liquid-extraction. The mixture was shaken for 1 min, centrifuged for 4 min at 12,000× g, and 400 μL of the upper organic phase was vacuum dried for 2 h. Then 100 μL of mobile phase (methanol-1% formic acid water (90:10, v/v)) was added, dissolved, vortexed for 1 min, and centrifuged at low temperature for 3 min at 12,000× g. The supernatant (80 μL) was placed in a sample bottle for HPLC-MS/MS analysis.
According to the non-compartmental model, the pharmacokinetic software DAS 2.0 was used to calculate the main pharmacokinetic parameters: maximum plasma concentration (Cmax), elimination half-life (t1/2), time to reach maximum plasma concentration (Tmax), mean residence time (MRT0–t), area under the plasma concentration curve from 0 to the last measured concentration (AUC0−t), AUC from 0 to infinity (AUC0–∞), apparent clearance rate (CL/F) and apparent distribution volume (V/F).

MRC5 cells = assay: CCK8 cell viability assay; assay type: cell-based; conditions: 20 μM, 48 h
Experimental: (§1) Medical Research Council cell strain-5 (MRC5, ATCC, Manassas, VA, USA, Cat# CCL-171) was supplemented with 10% fetal bovine serum (GIBCO, Invitrogen, Carlsbad, CA, USA) in low-sugar DMEM medium (GIBCO, Invitrogen, Carlsbad, CA, USA) in an incubator containing 5% CO2 atmosphere at 37 °C.
The cells were seeded in 96-well plates for 24 h and treated with DST-3 (1.25, 2.5, 5, 10, 20 μM) at different concentrations for 48 h. The CCK8 kit (Beyotime, Shanghai, China) was used to test the cytotoxic effect of DST-3 on MRC5 cells. Medium solution of 10% CCK8 was added to each well and incubated at 37 °C for 2 h. Absorbance was measured at 450 nm (BioTek, Elx800, Winooski, VT, USA).

[2] = test system: TGF-β1-stimulated MRC5 cells; assay: TGF-β1-induced fibrosis in MRC5 (α-SMA, fibronectin, type I collagen; immunofluorescence and Western blot); assay type: cell-based; conditions: TGF-β1 5 ng/mL, 48 h
Experimental: as §1
MRC5 cells were fixed in 4% paraformaldehyde for 0.5 h, then permeated with 1% Triton X-100 (Sangon Biotech, Shanghai, China) for 10 min, and blocked with goat serum (BOSTER, Wuhan, China) for 1 h. The cells were then incubated with α-SMA or STAT3 (1:100 diluted) primary antibody overnight at 4 °C and secondary antibody at room temperature for 1 h. The nuclei were stained at room temperature with Hoechst 33,342 (1:100 diluted) for 10 min. Fluorescence images were captured using a laser scanning ultra-high resolution microscope (FV3000, Olympus Corporation, Tokyo, Japan).
MRC5 cells or lung tissues were washed with cold PBS and then lysed on ice using RIPA buffer (Beyotime Biotechnology, Shanghai, China) supplemented with protease and phosphatase inhibitors (Bimake, Boston, USA) for 0.5 h and centrifuged at 4 °C at 12,000× g for 15 min. […] (BCA protein Assay Kit, Pierce, Waltham, MA, USA) was used to determine protein concentration. […] Band strength was quantified by ImageJ software (version 1.53t, Bio-Rad, Rockford, IL, USA).

[3] = test system: BLM-induced pulmonary fibrosis in C57BL/6 mice; assay: BLM-induced pulmonary fibrosis model; assay type: in vivo; conditions: BLM 2 mg/kg; DST-3 15–60 mg/kg, CTS 30 mg/kg oral
Description: Sixty male Sprague-Dawley (SD) rats were individually weighed one day prior to administration and randomly assigned to six groups (n = 10 per group) using a stratified randomization method to ensure balanced average body weights across groups (weight range: 220–260 g; inter-group mean weight difference < 5 g). The vehicle used for […] administration of both CTS and DST-3 was 0.5% sodium carboxymethyl cellulose (CMC-Na) solution. A–F: • (A) Normal saline + CMC–Na; • (B) BLM + 0.5% CMC–Na; • (C) BLM + DST-3 15 mg/kg; • (D) BLM + DST-3 30 mg/kg; • (E) BLM + DST-3 60 mg/kg; • (F) BLM + CTS 30 mg/kg.
Pulmonary fibrosis was induced in groups B–F by tracheal infusion of bleomycin 2 mg/kg, and in group A by normal saline. To create a suspension for oral administration, all DST-3 or CTS were dissolved in 0.5% CMC-Na. […]
HYP was specifically detected in collagen as a posttranslational product of proline hydroxylation. […] In this study, the content of HYP in lung tissue was determined by alkaline hydrolyzation. […] Each sample was measured at 550 nm to detect the absorbance, and the HYP content was calculated according to the following formula: Hydroxproline content (μg/mg) =Measured OD value -Blank OD value/Standard OD value -Blank OD value× Stand content ×Lysate total volume (mL)/Organization wet weight (mg) […]

[4] = cited from earlier work
[5] = male, rat, plasma, iv 6 mg/kg, n = 4, mean ± SD
[6] = male, rat, plasma, oral 60 mg/kg
[7] = male, rat, plasma, po, ig 60 mg/kg, n = 4, mean ± SD

C[C@H]1COC2=C1C(=O)C(=O)c1c2ccc2c1CCCC2(C)C [CTS, Cryptotanshinone]
V/F ([1]; ig 60 mg/kg, n = 4, mean ± SD): 1391 ± 382.0 L | V/F ([1]; iv 6 mg/kg, n = 4, mean ± SD): 87.70 ± 59.30 L | concentration at 0.25 h ([1]; male, rat, plasma, iv 6 mg/kg): 341 ng/mL | concentration at 0.5 h ([1]; male, rat, plasma, iv 6 mg/kg): 167 ng/mL | concentration at 1 h ([1]; male, rat, plasma, iv 6 mg/kg): 91.7 ng/mL | concentration at 2 h ([1]; male, rat, plasma, iv 6 mg/kg): 73.9 ng/mL | concentration at 3 h ([1]; male, rat, plasma, iv 6 mg/kg): 62.8 ng/mL | concentration at 4 h ([1]; male, rat, plasma, iv 6 mg/kg): 45.7 ng/mL | concentration at 6 h ([1]; male, rat, plasma, iv 6 mg/kg): 29.9 ng/mL | concentration at 8 h ([1]; male, rat, plasma, iv 6 mg/kg): 19 ng/mL | concentration at 12 h ([1]; male, rat, plasma, iv 6 mg/kg): 10.2 ng/mL | concentration at 24 h ([1]; male, rat, plasma, iv 6 mg/kg): 4.8 ng/mL | AUC(0-inf) [1, 5]: 671 ± 168 ng·h/mL | AUC(0-t) [1, 5]: 631 ± 157 ng·h/mL | Cmax [1, 5]: 341 ± 14.9 ng/mL | half-life [1, 5]: 6.8 ± 3.7 h | MRT last [1, 5]: 5.1 ± 0.3 h | concentration at 0.25 h [1, 6]: 11.7 ng/mL | concentration at 0.5 h [1, 6]: 13.6 ng/mL | concentration at 1 h [1, 6]: 18.9 ng/mL | concentration at 2 h [1, 6]: 16.3 ng/mL | concentration at 3 h [1, 6]: 23 ng/mL | concentration at 4 h [1, 6]: 34.8 ng/mL | concentration at 6 h [1, 6]: 29.4 ng/mL | concentration at 8 h [1, 6]: 31 ng/mL | concentration at 12 h [1, 6]: 17.5 ng/mL | concentration at 24 h [1, 6]: 8.9 ng/mL | bioavailability ([1]; male, rat, plasma, oral, ig 60 mg/kg vs iv 6 mg/kg, AUCig/AUCiv × 100%, read-out: absolute bioavailability): 8.56% | AUC(0-inf) [1, 7]: 574 ± 51 ng·h/mL | AUC(0-t) [1, 7]: 458 ± 22.8 ng·h/mL | Cmax [1, 7]: 39.5 ± 6.8 ng/mL | Tmax [1, 7]: 4.5 ± 1 h | half-life [1, 7]: 9.3 ± 3 h | MRT last [1, 7]: 15.7 ± 2.8 h | cell viability (cytotoxicity) (MRC5 cells): significantly decreased | expression of α-SMA and ECM proteins [2]: downregulate the overexpression | histopathology (HE and Masson staining): inflammatory infiltration and fibrosis severity [3]: reduced inflammatory infiltration and fibrosis severity | oral bioavailability ([4]; CTS is a substrate of P-glycoprotein): 2.05% | oral bioavailability ([4]; typically): below 10%
